The values below come from US10913712B2, “Tetracycline compounds” (Tetraphase Pharmaceuticals, Inc., priority 2012, dated 2021).

Values after ≈ are worked out from the molar mass of the structure shown.

For this assay, the system named is Burkholderia cenocepacia BC240 (cystic fibrosis isolate, MDR). As to the kind of experiment: MIC assay. The format is cell-based. Conditions: Table 6; control compounds.

In the case of `CN(C)[C@@H]1C(O)=C(C(N)=O)C(=O)[C@@]2(O)C(O)=C3C(=O)c4c(O)cccc4C[C@H]3C[C@@H]12` [Sancycline, sancycline], the “MIC BC 240” value was determined as 4 mg/L (≈ 9.65 µM).

Consider `CN(C)c1cc(NC(=O)CNC(C)(C)C)c(O)c2c1C[C@H]1C[C@H]3[C@H](N(C)C)C(O)=C(C(N)=O)C(=O)[C@@]3(O)C(O)=C1C2=O` [Tigecycline, tigecycline], for which the “MIC BC 240” value was 16 mg/L (≈ 27.3 µM).
